Reference: ChEMBL document CHEMBL3297694, “Naturally occurring polyphenolic inhibitors of amyloid beta aggregation” (Bioorg Med Chem Lett, 2014)
The source made the active and inactive calls. No cut-off for these calls is given here.

Legend:
[1] = target: T1, Amyloid-beta precursor protein (Homo sapiens, UniProt P05067); experiment: Inhibition of amyloid beta1-42 (unknown origin) aggregation assessed as amyloid fibril formation tested at 1:1 compound to peptide ratio after 17 hrs by thioflavin T fluorescence method; set-up: scale not given: the % may be the effect or the level left
[2] = target: T1, Amyloid-beta precursor protein; experiment: Inhibition of amyloid beta1-42 (unknown origin) aggregation assessed as reduction in amyloid fibril formation at 40 uM after 5 days by Transmission electron microscopy
[3] = target: T1, Amyloid-beta precursor protein; experiment: Inhibition of amyloid beta1-42 (unknown origin) aggregation assessed as amyloid fibril formation tested after 17 hrs by thioflavin T fluorescence method
[4] = target: T1, Amyloid-beta precursor protein; experiment: Inhibition of amyloid beta1-40 (unknown origin) aggregation
[5] = target: T1, Amyloid-beta precursor protein; experiment: Inhibition of amyloid beta1-42 (unknown origin) aggregation assessed as reduction in large aggregates at 100 uM after 20 mins and 24 hrs by dynamic light scattering method
[6] = target: T1, Amyloid-beta precursor protein; experiment: Inhibition of amyloid beta1-42 (unknown origin) aggregation assessed as reduction in large aggregates at 400 uM after 20 mins and 2 hrs by size exclusion chromatography test

T1 sequence (P05067 whole entry): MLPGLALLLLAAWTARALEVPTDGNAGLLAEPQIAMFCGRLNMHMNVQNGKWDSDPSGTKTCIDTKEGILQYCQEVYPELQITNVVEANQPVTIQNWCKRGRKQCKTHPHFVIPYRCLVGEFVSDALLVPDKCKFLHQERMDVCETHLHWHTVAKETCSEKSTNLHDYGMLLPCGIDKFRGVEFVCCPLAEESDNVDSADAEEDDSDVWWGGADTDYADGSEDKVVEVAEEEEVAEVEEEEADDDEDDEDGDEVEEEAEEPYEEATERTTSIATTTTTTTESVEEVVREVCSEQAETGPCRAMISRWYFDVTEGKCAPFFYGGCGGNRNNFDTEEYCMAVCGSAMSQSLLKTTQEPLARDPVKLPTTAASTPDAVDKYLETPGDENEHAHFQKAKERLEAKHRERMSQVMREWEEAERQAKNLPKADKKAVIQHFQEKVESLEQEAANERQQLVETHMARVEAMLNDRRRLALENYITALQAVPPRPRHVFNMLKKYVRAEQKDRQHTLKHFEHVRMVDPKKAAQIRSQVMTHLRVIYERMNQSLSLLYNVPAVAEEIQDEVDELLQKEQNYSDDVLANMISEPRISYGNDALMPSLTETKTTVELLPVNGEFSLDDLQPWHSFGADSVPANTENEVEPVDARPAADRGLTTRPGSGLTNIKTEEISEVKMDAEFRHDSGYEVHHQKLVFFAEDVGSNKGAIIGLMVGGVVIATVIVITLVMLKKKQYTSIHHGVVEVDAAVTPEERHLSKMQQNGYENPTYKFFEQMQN

Row | Compound | Activity [1] [%] | inhibition of amyloid fibril formation (active/inactive) [2] | IC50 [3] [µM] | IC50 [4] [µM] | inhibition [5] | Activity [6]
1 | O=C1/C(=C/c2ccc(O)c(O)c2)Oc2c1ccc(O)c2O | 18.5 | Active | 2.7 |  |  | 
2 | O=C(O[C@@H]1Cc2c(O)cc(O)cc2O[C@@H]1c1cc(O)c(O)c(O)c1)c1cc(O)c(O)c(O)c1 [EPIGALOCATECHIN GALLATE] | 16 | Active | 4.6 | 3 |  | 
3 | O=c1cc(-c2ccc(O)c(O)c2)oc2cc(O)cc(O)c12 [LUTEOLIN] | 14.4 | Active | 6.4 |  |  | 
4 | COc1c(-c2ccc(O)c(O)c2)oc2c(O)c(O)ccc2c1=O | 21 | Active | 5.4 |  | Active | Active
